15 compounds from patent publication US20230250060A1 (IFM Due, Inc., priority 2022, published 2023) can be followed below.

T1 sequence (Q86WV6 whole entry R71H/G230A/H232R/R293Q): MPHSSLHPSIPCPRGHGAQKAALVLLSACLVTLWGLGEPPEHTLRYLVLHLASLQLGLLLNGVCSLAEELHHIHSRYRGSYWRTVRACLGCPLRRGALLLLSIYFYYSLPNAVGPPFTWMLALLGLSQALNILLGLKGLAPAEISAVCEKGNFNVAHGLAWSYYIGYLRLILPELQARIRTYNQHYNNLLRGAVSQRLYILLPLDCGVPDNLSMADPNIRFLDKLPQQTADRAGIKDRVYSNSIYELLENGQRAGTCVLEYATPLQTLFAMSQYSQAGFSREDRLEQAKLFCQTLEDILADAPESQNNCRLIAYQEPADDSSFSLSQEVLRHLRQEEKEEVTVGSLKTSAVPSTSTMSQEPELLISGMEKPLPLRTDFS

The assay concerns the target T1, STING (Homo sapiens, UniProt Q86WV6, G230A/H232R/R293Q/R71H).
T1 construct: host or cells: THP1-Dual KO-IFNAR2 cells
Put plainly: STING reporter assay (luciferase) in THP1-Dual KO-IFNAR2 cells stimulated with 2′3′cGAMP. Format: cell-based. To be noted: 2′3′cGAMP 15 μM final, 24 h, luciferase reporter activity, read-out: Pharmaron, THP1_IFNAR2 STING 24 h Luci Normalized: GeoMean EC50. How it is done:
STING pathway activation by the compounds described herein was measured using TTIP1-Dual™ cells (KO-IFNAR2).
TTIP1-Dual™ KO-IFNAR2 Cells (obtained from invivogen) were maintained in RPMI, 10% FCS, 5 ml P/S, 2 mM L-glut, 10 mM Hepes, and 1 mM sodium pyruvate. Compounds were spotted in empty 384 well tissue culture plates (Greiner 781182) by Echo for a final concentration of 0.0017-100 μM. Cells were plated into the TC plates at 40 μL per well, 2×10E6 cells/mL. For activation with STING ligand, 2′3′cGAMP (MW 718.38, obtained from Invivogen), was prepared in Optimem media.
The following solutions were prepared for each 1×384 plate: • Solution A: 2 mL Optimem with one of the following stimuli: • […] • Solution B: 2 mL Optimem with […] Lipofectamine 2000→Incubate 5 min at RT
2 mL of solution A and 2 ml Solution B was mixed and incubated for 20 min at room temperature (RT). 20 μL of transfection solution (A+B) was added on top of the plated cells, with a final 2′3′cGAMP concentration of 15 μM. The plates were then centrifuged immediately at 340 g for 1 minute, after which they were incubated at 37° C., 5% CO2, >98% humidity for 24 h. Luciferase reporter activity was then measured. EC50 values were calculated by using standard methods known in the art.
Luciferase reporter assay: 10 μL of supernatant from the assay was transferred to white 384-plate with flat bottom and squared wells. One pouch of QUANTI-Luc™ Plus was dissolved in 25 mL of water. 100 μL of QLC Stabilizer per 25 mL of QUANTI-Luc™ Plus solution was added. 50 μL of QUANTI-Luc™ Plus/QLC solution per well was then added. Luminescence was measured on a Platereader (e.g., Spectramax I3X (Molecular Devices GF3637001)).
Luciferase reporter activity was then measured. EC50 values were calculated by using standard methods known in the art.
The term EC50 denotes the concentration at which the effect is half-maximal. In the case of `O=C(Nc1c[nH]c2ccc(OCc3ccc(C(F)(F)F)cc3)cc12)C1CC12CC2` (stereo not drawn) [Compound 101, N-(5-((4-(trifluoromethyl)benzyl)oxy)-1H-indol-3-yl)spiro[2.2]pentane-1-carboxamide], the concentration giving a half-maximal response (EC50) lay in the range of 200 to 1000 nM.
Take `O=C(CC1CC1)Nc1c[nH]c2ccc(O[C@H]3C[C@@H](c4ccc(C(F)(F)F)cc4)C3)cc12` [Compound 102, 2-cyclopropyl-N-(5-((1s,3s)-3-(4-(trifluoromethyl)phenyl)cyclobutoxy)-1H-indol-3-yl)acetamide]: the EC50 fell in the range of 40 to 200 nM.
Turning to `Cn1nccc1C(=O)Nc1c[nH]c2ccc(CCOc3ccc(C(F)(F)F)cc3)cc12` [Compound 103, 1-methyl-N-(5-(2-(4-(trifluoromethyl)phenoxy)ethyl)-1H-indol-3-yl)-1H-pyrazole-5-carboxamide], the EC50 was in the range of 200 to 1000 nM.
`O=C(Nc1c[nH]c2ccc(CCOc3ccc(C(F)(F)F)cc3)cc12)C1CC12CCC2` (stereo not drawn) [Compound 104, N-(5-(2-(4-(trifluoromethyl)phenoxy)ethyl)-1H-indol-3-yl)spiro[2.3]hexane-1-carboxamide]: the EC50 fell in the range of 200 to 1000 nM.
The figure for `N#CC12CC(C(=O)Nc3c[nH]c4ccc(OCCc5ccc(C(F)(F)F)cc5)cc34)(C1)C2` [Compound 106, 3-cyano-N-(5-(4-(trifluoromethyl)phenethoxy)-1H-indol-3-yl)bicyclo[1.1.1]pentane-1-carboxamide] is 200 to 1000 nM; for `CC12CC(C(=O)Nc3c[nH]c4ccc(OCCc5ccc(C(F)(F)F)cc5)cc34)(C1)C2` [Compound 107, 3-methyl-N-(5-(4-(trifluoromethyl)phenethoxy)-1H-indol-3-yl)bicyclo[1.1.1]pentane-1-carboxamide] it is 200 to 1000 nM; for `O=C(Nc1c[nH]c2ccc(OCCc3ccc(C(F)(F)F)cc3)cc12)C12CC(F)(C1)C2` [Compound 108, 3-fluoro-N-(5-(4-(trifluoromethyl)phenethoxy)-1H-indol-3-yl)bicyclo[1.1.1]pentane-1-carboxamide] it is 200 to 1000 nM.
The figure for `O=C(Nc1c[nH]c2ccc(OCCc3ccc(C(F)(F)F)cc3)cc12)c1ncccc1F` [Compound 109, 3-fluoro-N-(5-(4-(trifluoromethyl)phenethoxy)-1H-indol-3-yl)picolinamide] is 200 to 1000 nM; for `O=C(Nc1c[nH]c2ccc(OCCc3ccc(C(F)(F)F)cc3)cc12)c1nccs1` [Compound 110, N-(5-(4-(trifluoromethyl)phenethoxy)-1H-indol-3-yl)thiazole-2-carboxamide] it is 200 to 1000 nM; for `Cc1oncc1C(=O)Nc1c[nH]c2ccc(OCCc3ccc(C(F)(F)F)cc3)cc12` [Compound 111] it is 5000 to 100000 nM.
In the case of `Cc1noc(C)c1C(=O)Nc1c[nH]c2ccc(OCCc3ccc(C(F)(F)F)cc3)cc12` [Compound 112, 3,5-dimethyl-N-(5-(4-(trifluoromethyl)phenethoxy)-1H-indol-3-yl)isoxazole-4-carboxamide], the concentration giving a half-maximal response (EC50) is 200 to 1000 nM.
`O=C(Nc1c[nH]c2ccc(OCCc3ccc(C(F)(F)F)cc3)cc12)c1cncs1` [Compound 113, N-(5-(4-(trifluoromethyl)phenethoxy)-1H-indol-3-yl)thiazole-5-carboxamide]: the EC50 lay in the range of 200 to 1000 nM.
With `O=C(Nc1c[nH]c2ccc(OCCc3ccc(C(F)(F)F)cc3)cc12)c1cscn1` [Compound 114, N-(5-(4-(trifluoromethyl)phenethoxy)-1H-indol-3-yl)thiazole-4-carboxamide], the EC50 lay within 200 to 1000 nM.
Regarding `O=C(Nc1c[nH]c2ccc(CCOc3ccc(C(F)(F)F)cc3)cc12)C12CC(F)(C1)C2` [Compound 116, 3-fluoro-N-(5-(2-(4-(trifluoromethyl)phenoxy)ethyl)-1H-indol-3-yl)bicyclo[1.1.1]pentane-1-carboxamide], the 50% effective concentration (EC50) was 200 to 1000 nM.
As to `O=C(Nc1c[nH]c2ccc(CCOc3ccc(C(F)(F)F)cc3)cc12)c1ncccc1F` [Compound 117, 3-fluoro-N-(5-(2-(4-(trifluoromethyl)phenoxy)ethyl)-1H-indol-3-yl)picolinamide], the EC50 lay in the range of 200 to 1000 nM.
